Assay: Stability study of green tea catechins: incubation in Na-Pi buffer pH 7.4 at 37° C., HPLC
Type: physicochemical
Protocol: Samples were prepared according to the following method. Briefly, each sample was treated with acetic acid (30% final concentration) for 30 min and then added to an aqueous solution containing 10% acetonitrile, 0.5 mg/mL EDTA and 0.5 mg/mL ascorbic acid. The mix was then centrifuged for 30 min at 14′000×g and the supernatant analysed by HPLC. Following this protocol allows the complete recovery of all catechins.
Green tea catechins were determined by reverse phase HPLC using an analytical method based on the ISO FDIS 14502-2 method. The HPLC system used was a 1100 series Hewlett-Packard (Geneva, Switzerland) model equipped with an ultraviolet-visible photodiode array and a fluorimetric detector. Catechins were detected by UV absorption at 280.4 nm except for catechins and epicatechin that were detected by fluorescence (excitation: 280 nm; emission: 310 nm). Samples (10 μl) were separated on a Zorbax RX—C18 column (4.6 mm internal diameter×250 mm length, Agilent technologies). Flow rate was 1.0 mL/min.
Sample concentration of green tea catechins (C, EC, EgC, EgCg, ECg) were calculated based on the corresponding calibration curve and reported as % of the initial value (sample at t0). Since caffeine, endogenous to green tea samples, is stable under the selected assay conditions, it was used as internal standard for all calculations. […]

For `O=C1O[C@H]([C@@H](O)CO)C(O)=C1O` [vitamin C, ascorbic acid], the protection of catechins (0.2 mM, at least for 2 h of incubation, data not shown) was “a certain protection” and the “vitamin C concentration at which the plateau of stabilisation is reached” value (stabilisation during 6 h, GTE 0.1%, pH 7.4, 37° C) was 2.5 mM.

Reference: patent publication US9180077B2, “Green tea extracts of improved bioavailability” (Nestec S.A., priority 2009, dated 2015)
